Measured values from patent US20050154042A1, “N-alkyl pyrroles as HMG-CoA reductase inhibitors” (priority 2003, published 2005).

Compound | melting point
CC(C)n1c(CC[C@@H](O)C[C@@H](O)CC(=O)[O-])c(-c2ccc(F)cc2)c(-c2ccccc2)c1C(=O)N[C@@H](C)c1ccccc1.[Na+] [Example 115, (3R,5R)-7-[3-(4-Fluoro-phenyl)-1-isopropyl-4-phenyl-5-((S)-1-phenyl-ethylcarbamoyl)-1H-pyrrol-2-yl]-3,5-dihydroxy-heptanoic Acid Sodium Salt] | 227 to 229 °C (dec.)
COC(=O)c1ccc(NC(=O)c2c(-c3ccccc3)c(-c3ccc(F)cc3)c(CC[C@@H](O)C[C@@H](O)CC(=O)[O-])n2C(C)C)cc1.[Na+] [Example 116, (3R,5R)-4-{[5-(6-Carboxy-3,5-dihydroxy-hexyl)-4-(4-fluoro-phenyl)-1-isopropyl-3-phenyl-1H-pyrrole-2-carbonyl]-amino}-benzoic Acid Methyl Ester Sodium Salt] | 188 to 191 °C (dec.)
COC(=O)c1ccc(NC(=O)c2c(-c3ccccc3)c(-c3ccc(F)cc3)c(CC[C@@H](O)C[C@@H](O)CC(=O)[O-])n2C(C)C)nc1.[Na+] [Example 118, (3R,5R)-6-{[5-(6-Carboxy-3,5-dihydroxy-hexyl)-4-(4-fluoro-phenyl)-1-isopropyl-3-phenyl-1H-pyrrole-2-carbonyl]-amino}-nicotinic Acid Methyl Ester Sodium Salt] | 188 to 190 °C (dec.)
CC(C)n1c(CC[C@@H](O)C[C@@H](O)CC(=O)[O-])c(-c2ccc(F)cc2)c(-c2ccccc2)c1C(=O)Nc1ccccn1.[Na+] [Example 119, (3R,5R)-7-[3-(4-Fluoro-phenyl)-1-isopropyl-4-phenyl-5-(pyridin-2-ylcarbamoyl)-1 H-pyrrol-2-yl]-3,5-dihydroxy-heptanoic Acid Sodium Salt] | 226 to 228 °C (dec.)
CC(C)n1c(CC[C@@H](O)C[C@@H](O)CC(=O)[O-])c(-c2ccc(F)cc2)c(-c2ccccc2)c1C(=O)N(c1ccccn1)c1ccccn1.[Na+] [Example 123, (3R,5R)-7-[5-(Di-pyridin-2-yl-carbamoyl)-3-(4-fluoro-phenyl)-1-isopropyl-4-phenyl-1H-pyrrol-2-yl]-3,5-dihydroxy-heptanoic Acid Sodium Salt] | 223 to 225 °C (dec.)
CC(C)n1c(CC[C@@H](O)C[C@@H](O)CC(=O)[O-])c(-c2ccc(F)cc2)c(-c2ccccc2)c1C(=O)Nc1cccc(S(N)(=O)=O)c1.[Na+] [Example 125, (3R,5R)-7-[3-(4-Fluoro-phenyl)-1-isopropyl-4-phenyl-5-(3-sulfamoyl-phenylcarbamoyl)-1H-pyrrol-2-yl]-3,5-dihydroxy-heptanoic Acid Sodium Salt] | 227 to 229 °C
CC(C)n1c(/C=C/[C@@H](O)C[C@@H](O)CC(=O)[O-])c(-c2ccc(F)cc2)c(-c2ccccc2)c1C(=O)Nc1cccc(S(N)(=O)=O)c1.[Na+] [Example 126, (3R,5S)-7-[3-(4-Fluoro-phenyl)-1-isopropyl-4-phenyl-5-(3-sulfamoyl-phenylcarbamoyl)-1H-pyrrol-2-yl]-3,5-dihydroxy-hept-6-enoic Acid Sodium Salt] | 225 to 227 °C
CC(C)n1c(CC[C@@H](O)C[C@@H](O)CC(=O)[O-])c(-c2ccc(F)cc2)c(-c2ccc(F)cc2)c1C(=O)Nc1ccc(O)cc1.[Na+] [Example 133, (3R,5R)-7-[3,4-Bis-(4-fluoro-phenyl)-5-(4-hydroxy-phenylcarbamoyl)-1-isopropyl-1H-pyrrol-2-yl]-3,5-dihydroxy-heptanoic Acid Sodium Salt] | 228 to 230 °C
CC(C)n1c(/C=C/[C@@H](O)C[C@@H](O)CC(=O)[O-])c(-c2ccc(F)cc2)c(-c2ccc(F)cc2)c1C(=O)Nc1cccc(Cl)c1.[Na+] [Example 139, (3R,5S)-7-[5-(3-Chloro-phenylcarbamoyl)-3,4-bis-(4-fluoro-phenyl)-1-isopropyl-1H-pyrrol-2-yl]-3,5-dihydroxy-hept-6-enoic Acid Sodium Salt] | 229 to 230 °C
CCc1cccc(NC(=O)c2c(-c3ccc(F)cc3)c(-c3ccc(F)cc3)c(CC[C@@H](O)C[C@@H](O)CC(=O)[O-])n2C(C)C)c1.[Na+] [Example 140, (3R,5R)-7-[5-(3-Ethyl-phenylcarbamoyl)-3,4-bis-(4-fluoro-phenyl)-1-isopropyl-1H-pyrrol-2-yl]-3,5-dihydroxy-heptanoic Acid Sodium Salt] | 175 to 177 °C
CCc1cccc(NC(=O)c2c(-c3ccc(F)cc3)c(-c3ccc(F)cc3)c(/C=C/[C@@H](O)C[C@@H](O)CC(=O)[O-])n2C(C)C)c1.[Na+] [Example 141, (3R,5S)-7-[5-(3-Ethyl-phenylcarbamoyl)-3,4-bis-(4-fluoro-phenyl)-1-isopropyl-1H-pyrrol-2-yl]-3,5-dihydroxy-hept-6-enoic Acid Sodium Salt] | 229 to 230 °C
CC(C)n1c(/C=C/[C@@H](O)C[C@@H](O)CC(=O)[O-])c(-c2ccc(F)cc2)c(-c2ccccc2)c1C(=O)Nc1cccc(C#N)c1.[Na+] [Example 143, (3R,5S)-7-[5-(3-Cyano-phenylcarbamoyl)-3-(4-fluoro-phenyl)-1-isopropyl-4-phenyl-1H-pyrrol-2-yl]-3,5-dihydroxy-hept-6-enoic Acid Sodium Salt] | 210 to 212 °C

Continued, values first:

melting point | Compound
186 to 189 °C | CC(C)n1c(CC[C@@H](O)C[C@@H](O)CC(=O)[O-])c(-c2ccc(F)cc2)c(-c2ccccc2)c1C(=O)NCc1ccccc1.[Na+] [Example 114, (3R,5R)-7-[5-Benzylcarbamoyl-3-(4-fluoro-phenyl)-1-isopropyl-4-phenyl-1H-pyrrol-2-yl]-3,5-dihydroxy-heptanoic Acid Sodium Salt]
217 to 219 °C (dec.) | CC(C)n1c(CC[C@@H](O)C[C@@H](O)CC(=O)[O-])c(-c2ccc(F)cc2)c(-c2ccc(F)cc2)c1C(=O)Nc1ccccn1.[Na+] [Example 120, (3R,5R)-7-[3,4-Bis-(4-fluoro-phenyl)-1-isopropyl-5-(pyridin-2-ylcarbamoyl)-1H-pyrrol-2-yl]-3,5-dihydroxy-heptanoic Acid Sodium Salt]
178 to 181 °C (dec.) | COC(=O)c1ccc(NC(=O)c2c(-c3ccc(F)cc3)c(-c3ccc(F)cc3)c(CC[C@@H](O)C[C@@H](O)CC(=O)[O-])n2C(C)C)nc1.[Na+] [Example 121, (3R,5R)-6-{[5-(6-Carboxy-3,5-dihydroxy-hexyl)-3,4-bis-(4-fluoro-phenyl)-1-isopropyl-1H-pyrrole-2-carbonyl]-amino}-nicotinic Acid Methyl Ester Sodium Salt]
172 to 174 °C (dec.) | CC(C)n1c(CC[C@@H]2C[C@@H](O)CC(=O)O2)c(-c2ccc(F)cc2)c(-c2ccccc2)c1C(=O)Nc1ccc(C(=O)O)cn1 [Example 124, (2R,4R)-6-({4-(4-Fluoro-phenyl)-5-[2-(4-hydroxy-6-oxo-tetrahydro-pyran-2-yl)-ethyl]-1-isopropyl-3-phenyl-1H-pyrrole-2-carbonyl}-amino)-nicotinic Acid]
215 to 217 °C | CC(C)n1c(CC[C@@H](O)C[C@@H](O)CC(=O)[O-])c(-c2ccc(F)cc2)c(-c2ccc(F)cc2)c1C(=O)Nc1ccc(OCc2ccccc2)cc1.[Na+] [Example 127]
228 to 229 °C | CC(C)n1c(/C=C/[C@@H](O)C[C@@H](O)CC(=O)[O-])c(-c2ccc(F)cc2)c(-c2ccc(F)cc2)c1C(=O)Nc1ccccc1OCc1ccccc1.[Na+] [Example 131, (3R,5S)-7-[5-(2-Benzyloxy-phenylcarbamoyl)-3,4-bis-(4-fluoro-phenyl)-1-isopropyl-1H-pyrrol-2-yl]-3,5-dihydroxy-hept-6-enoic Acid Sodium Salt]
225 to 227 °C | CC(C)n1c(/C=C/[C@@H](O)C[C@@H](O)CC(=O)[O-])c(-c2ccc(F)cc2)c(-c2ccc(F)cc2)c1C(=O)Nc1cccc(OCc2ccccc2)c1.[Na+] [Example 132, (3R,5 S)-7-[5-(3-Benzyloxy-phenylcarbamoyl)-3,4-bis-(4-fluoro-phenyl)-1-isopropyl-1H-pyrrol-2-yl]-3,5-dihydroxy-hept-6-enoic Acid Sodium Salt]
222 to 223 °C | CC(C)n1c(CC[C@@H](O)C[C@@H](O)CC(=O)[O-])c(-c2ccc(F)cc2)c(-c2ccc(F)cc2)c1C(=O)Nc1ccccc1O.[Na+] [Example 134, (3R,5R)-7-[3,4-Bis-(4-fluoro-phenyl)-5-(2-hydroxy-phenylcarbamoyl)-1-isopropyl-1H-pyrrol-2-yl]-3,5-dihydroxy-heptanoic Acid Sodium Salt]
220 to 222 °C | CC(C)n1c(CC[C@@H](O)C[C@@H](O)CC(=O)[O-])c(-c2ccc(F)cc2)c(-c2ccc(F)cc2)c1C(=O)Nc1cccc(O)c1.[Na+] [Example 135, (3R,5R)-7-[3,4-Bis-(4-fluoro-phenyl)-5-(3-hydroxy-phenylcarbamoyl)-1-isopropyl-1H-pyrrol-2-yl]-3,5-dihydroxy-heptanoic Acid Sodium Salt]
215 to 217 °C | COc1cccc(NC(=O)c2c(-c3ccc(F)cc3)c(-c3ccc(F)cc3)c(CC[C@@H](O)C[C@@H](O)CC(=O)[O-])n2C(C)C)c1.[Na+] [Example 136, (3R,5R)-7-[3,4-Bis-(4-fluoro-phenyl)-1-isopropyl-5-(3-methoxy-phenylcarbamoyl)-1H-pyrrol-2-yl]-3,5-dihydroxy-heptanoic Acid Sodium Salt]
225 to 227 °C | COc1cccc(NC(=O)c2c(-c3ccc(F)cc3)c(-c3ccc(F)cc3)c(/C=C/[C@@H](O)C[C@@H](O)CC(=O)[O-])n2C(C)C)c1.[Na+] [Example 137, (3R,5 S)-7-[3,4-Bis-(4-fluoro-phenyl)-1-isopropyl-5-(3-methoxy-phenylcarbamoyl)-1H-pyrrol-2-yl]-3,5-dihydroxy-hept-6-enoic Acid Sodium Salt]
191 to 194 °C | CC(C)n1c(CC[C@@H](O)C[C@@H](O)CC(=O)[O-])c(-c2ccc(F)cc2)c(-c2ccc(F)cc2)c1C(=O)Nc1cccc(Cl)c1.[Na+] [Example 138, (3R,5R)-7-[5-(3-Chloro-phenylcarbamoyl)-3,4-bis-(4-fluoro-phenyl)-1-isopropyl-1H-pyrrol-2-yl]-3,5-dihydroxy-heptanoic Acid Sodium Salt]
197 to 199 °C | CC(C)n1c(CC[C@@H](O)C[C@@H](O)CC(=O)[O-])c(-c2ccc(F)cc2)c(-c2ccccc2)c1C(=O)Nc1cccc(C#N)c1.[Na+] [Example 142, (3R,5R)-7-[5-(3-Cyano-phenylcarbamoyl)-3-(4-fluoro-phenyl)-1-isopropyl-4-phenyl-1H-pyrrol-2-yl]-3,5-dihydroxy-heptanoic Acid Sodium Salt]
